Experiments:
Pyruvate kinase PKLR [1] = biological target: Pyruvate kinase PKLR (Homo sapiens, UniProt P30613, R532W); assay: Activation of PKR R532W mutant (unknown origin) incubated for 60 mins in presence of ADP, PEP and NADH by Spectraax microplate reader based assay
Pyruvate kinase PKLR [2] = biological target: T1, Pyruvate kinase PKLR (Homo sapiens, UniProt P30613); assay: Activation of wild type PKR (unknown origin) incubated for 60 mins in presence of ADP, PEP and NADH by Spectraax microplate reader based assay
T1 sequence (P30613 whole entry): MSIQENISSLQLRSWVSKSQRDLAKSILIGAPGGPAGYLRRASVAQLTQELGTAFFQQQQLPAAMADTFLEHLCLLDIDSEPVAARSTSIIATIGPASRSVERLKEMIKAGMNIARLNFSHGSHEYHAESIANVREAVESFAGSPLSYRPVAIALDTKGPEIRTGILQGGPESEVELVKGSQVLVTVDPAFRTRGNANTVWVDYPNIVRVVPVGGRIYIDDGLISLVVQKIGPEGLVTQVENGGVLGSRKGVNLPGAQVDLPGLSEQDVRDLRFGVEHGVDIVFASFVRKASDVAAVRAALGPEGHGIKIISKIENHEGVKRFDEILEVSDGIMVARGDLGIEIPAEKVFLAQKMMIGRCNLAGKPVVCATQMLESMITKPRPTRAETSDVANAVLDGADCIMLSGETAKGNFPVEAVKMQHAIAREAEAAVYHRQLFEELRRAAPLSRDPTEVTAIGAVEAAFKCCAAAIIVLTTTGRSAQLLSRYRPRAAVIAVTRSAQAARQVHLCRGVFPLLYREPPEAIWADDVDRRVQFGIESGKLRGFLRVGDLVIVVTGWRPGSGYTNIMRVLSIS

Pyruvate kinase PKLR [3] = biological target: T1, Pyruvate kinase PKLR; assay: Activation of wild type PKR (unknown origin) by cell based assay

Measured: AC50

Sequence of Pyruvate kinase PKLR (Homo sapiens, UniProt P30613, R532W) (P30613 whole entry R532W): as the sequence (P30613 whole entry) above, with R532W counted along it

Cc1cc(C(=O)N2CCC(O)(c3cccc(F)c3F)CC2)ccc1NS(=O)(=O)c1cccc2nccnc12
< 100 nM: all assays above

O=C(c1ccc(NS(=O)(=O)c2cccc3scnc23)cc1)N1CCC(O)(CCCC(F)(F)F)CC1
< 100 nM: all assays above

Cc1nc2c(S(=O)(=O)Nc3ccc(C(=O)N4CCC(O)(c5ccccc5Cl)CC4)cc3)cccc2o1
< 100 nM: all assays above

O=C(c1ccc(NS(=O)(=O)c2cccc3cccnc23)c(F)c1)N1CCC(O)(Cc2ccccc2)CC1
< 100 nM: all assays above

O=C(c1ccc(NS(=O)(=O)c2cccc3cccnc23)cc1)N1CCC(O)(c2cccc(C(F)(F)F)n2)CC1
< 100 nM: all assays above

O=C(c1ccc(NS(=O)(=O)c2cccc3cccnc23)cc1)N1CCC(O)(Cc2cccc(F)n2)CC1
< 100 nM: all assays above

O=C(c1ccc(NS(=O)(=O)c2cccc3scnc23)cc1)N1CCC(O)(CC2CCC2)CC1
< 100 nM: all assays above

O=C(c1ccc(NS(=O)(=O)c2cccc3cccnc23)cc1)N1CCC(O)(c2ccccc2F)CC1
< 100 nM: all assays above

CC(C)C1(O)CCN(C(=O)c2ccc(NS(=O)(=O)c3cccc4cccnc34)cc2)CC1
< 100 nM: all assays above

O=C(c1ccc(NS(=O)(=O)c2cccc3cc(F)cnc23)cc1)N1CCC(O)(c2ccccc2)CC1
< 100 nM: all assays above

O=C(c1ccc(NS(=O)(=O)c2cccc3cccnc23)cc1)N1CCC(O)(c2ccccc2)CC1
< 100 nM: all assays above

O=C(c1ccc(NS(=O)(=O)c2cccc3nccnc23)cc1)N1CCC(O)(CCCC(F)F)CC1
< 100 nM: all assays above

CC(C)CC1(O)CCN(C(=O)c2ccc(NS(=O)(=O)c3cccc4nccnc34)cc2OC(F)F)CC1
< 100 nM: all assays above

O=C(c1ccc(NS(=O)(=O)c2cccc3scnc23)cc1)N1CCC(O)(c2ccccc2Cl)CC1
< 100 nM: all assays above

CC(C)CC1(O)CCN(C(=O)c2ccc(NS(=O)(=O)c3cccc4c3OCO4)cc2)CC1
< 100 nM: all assays above

Cc1cc(NS(=O)(=O)c2cccc3cccnc23)ccc1C(=O)N1CCC(O)(c2ccccc2Cl)CC1
< 100 nM: all assays above

O=C(c1ccc(NS(=O)(=O)c2cccc3cccnc23)cc1)N1CCC(O)(c2ncccc2Cl)CC1
< 100 nM: all assays above

O=C(c1ccc(NS(=O)(=O)c2cccc3cccnc23)cc1)N1CCC(O)(c2cc(F)ccc2Cl)CC1
< 100 nM: all assays above

O=C(c1ccc(NS(=O)(=O)c2cccc3cccnc23)cc1)N1CCC(O)(Cc2cccc(F)c2F)CC1
< 100 nM: all assays above

N#Cc1cc(NS(=O)(=O)c2cccc3cccnc23)ccc1C(=O)N1CCC(O)(c2ccccc2Cl)CC1
< 100 nM: all assays above

O=C(c1ccc(NS(=O)(=O)c2cccc3nccnc23)cc1)N1CCC(O)(c2ccccc2Cl)CC1
< 100 nM: all assays above

O=C(c1ccc(NS(=O)(=O)c2cccc3c(O)ncnc23)cc1)N1CCC(O)(c2cccc(F)c2F)CC1
< 100 nM: all assays above

Cn1nccc1CC1(O)CCN(C(=O)c2ccc(NS(=O)(=O)c3cccc4nccnc34)cc2)CC1
< 100 nM: all assays above

O=C(c1ccc(NS(=O)(=O)c2cccc3cccnc23)cc1)N1CCC(O)(CC2CC2(F)F)CC1 (configuration not stated)
< 100 nM: all assays above

O=C(c1ccc(NS(=O)(=O)c2cccc3scnc23)cc1)N1CCC(O)(c2cccc(F)c2F)CC1
< 100 nM: all assays above

O=C(c1ccc(NS(=O)(=O)c2cccc3cccnc23)cc1)N1CCC(O)(c2ccc(F)cc2)CC1
< 100 nM: all assays above

O=C(c1ccc(NS(=O)(=O)c2cccc3cccnc23)cc1)N1CCC(O)(c2ccncc2Cl)CC1
< 100 nM: all assays above

O=C(c1ccc(NS(=O)(=O)c2cccc3cccnc23)c(Cl)c1)N1CCC(O)(c2ccccc2Cl)CC1
< 100 nM: all assays above

O=C(c1ccc(NS(=O)(=O)c2cccc3cccnc23)cc1)N1CCC(O)(Cc2cccnc2F)CC1
< 100 nM: all assays above

CCCC1(O)CCN(C(=O)c2ccc(NS(=O)(=O)c3cccc4cccnc34)cc2)CC1
< 100 nM: all assays above

CC(C)(C)C1(O)CCN(C(=O)c2ccc(NS(=O)(=O)c3cccc4cccnc34)cc2)CC1
< 100 nM: all assays above

CC(C)CC1(O)CCN(C(=O)c2ccc(NS(=O)(=O)c3cncc4cccnc34)cc2)CC1
< 100 nM: all assays above

O=C(c1ccc(NS(=O)(=O)c2cccc3c2OCCO3)cc1)N1CCC(O)(Cc2ccccc2)CC1
< 100 nM: all assays above

O=C(c1ccc(NS(=O)(=O)c2cccc3nccnc23)cc1)N1CCC(O)(CCC(F)=C(F)F)CC1
< 100 nM: all assays above

O=C(c1ccc(NS(=O)(=O)c2cccc3cccnc23)cc1)N1CCC(CO)(Cc2ccccc2)CC1
< 100 nM: all assays above

O=C(c1ccc(NS(=O)(=O)c2cccc3cccnc23)cc1)N1CCC(O)(CCC(F)F)CC1
< 100 nM: all assays above

O=C(c1ccc(NS(=O)(=O)c2cccc3cccnc23)cc1)N1CCC(O)(c2cnsc2)CC1
< 100 nM: all assays above

O=C(c1ccc(NS(=O)(=O)c2cccc3cccnc23)cc1)N1CCC(O)(c2cccnc2C(F)(F)F)CC1
< 100 nM: all assays above

COc1cccc(CC2(O)CCN(C(=O)c3ccc(NS(=O)(=O)c4cccc5cccnc45)cc3)CC2)c1
< 100 nM: all assays above

Cc1ncccc1C1(O)CCN(C(=O)c2ccc(NS(=O)(=O)c3cccc4cccnc34)cc2)CC1
< 100 nM: all assays above

Cc1cccnc1C1(O)CCN(C(=O)c2ccc(NS(=O)(=O)c3cccc4cccnc34)cc2)CC1
< 100 nM: all assays above

Cc1noc(C)c1CC1(O)CCN(C(=O)c2ccc(NS(=O)(=O)c3cccc4nccnc34)cc2)CC1
< 100 nM: all assays above

Cc1cccc(CC2(O)CCN(C(=O)c3ccc(NS(=O)(=O)c4cccc5cccnc45)cc3)CC2)c1
< 100 nM: all assays above

CC(F)(F)CCC1(O)CCN(C(=O)c2ccc(NS(=O)(=O)c3cccc4nc(N)cnc34)cc2)CC1
< 100 nM: all assays above
